Literature values in US20130281387A1, “Chemosensory Receptor Ligand-Based Therapies” (ELCELYX THERAPEUTICS, INC., priority 2010, published 2013).

System: bitter receptor
Conditions: bitter phytonutrients in common plant foods

Taste quality	SMILES
Tasteless	CC1(C)O[C@H]2CC(=O)OC[C@]23[C@H]2CC[C@@](C)([C@@H](O[C@@H]4O[C@H](CO)[C@@H](O)[C@H](O)[C@H]4O)c4ccoc4)[C@@]4(O[C@@H]4C(=O)O)[C@]2(C)C(=O)C[C@@H]13 [Limonin glucoside]
Bitter	COc1ccc(-c2cc(=O)c3c(OC)c(OC)c(OC)cc3o2)cc1OC [Sinensetin]
Bitter or astringent	O=c1c(-c2ccc(O)cc2)coc2cc(O)cc(O)c12 [Genistein]
Bitter	O=S(=O)(O)ON=C(Cc1c[nH]c2ccccc12)S[C@@H]1O[C@H](CO)[C@@H](O)[C@H](O)[C@H]1O [Glucobrassicin]
Bitter or astringent	O=c1c(-c2ccc(O)cc2)coc2cc(O)ccc12 [daidzein]
Bitter	O=c1c(O)c(-c2ccc(O)c(O)c2)oc2cc(O)cc(O)c12 [Quercetin]
Bitter and astringent	O=C(O[C@@H]1Cc2c(O)cc(O)cc2O[C@@H]1c1ccc(O)c(O)c1)c1cc(O)c(O)c(O)c1 [Epicatechin gallate]
Bitter	C[C@@H]1O[C@@H](O[C@H]2[C@H](Oc3cc(O)c4c(c3)O[C@H](c3ccc(O)cc3)CC4=O)O[C@H](CO)[C@@H](O)[C@@H]2O)[C@H](O)[C@H](O)[C@H]1O [Naringin]
Bitter	COc1ccc(-c2cc(=O)c3c(OC)c(OC)c(OC)c(OC)c3o2)cc1 [Tangeretin]
Bitter	COc1ccc(-c2cc(=O)c3c(OC)c(OC)c(OC)c(OC)c3o2)cc1OC [Nobiletin]
Acrid mustard oils	C[S+]([O-])CCCCN=C=S (stereo not shown) [4-Methylsulfinyl butyl isothiocyanate]
Bitter	CC1(C)O[C@H]2CC(=O)OC[C@]23[C@H]2CC[C@@]4(C)[C@H](c5ccoc5)OC(=O)[C@H]5O[C@]54[C@]2(C)C(=O)C[C@@H]13 [Limonin]
Astringent	O=c1c(-c2ccc(O)cc2)coc2cc(O[C@@H]3O[C@H](CO)[C@@H](O)[C@H](O)[C@H]3O)cc(O)c12 [Genistin]
Bitter	C=C[C@H](O)CC(=NOS(=O)(=O)O)S[C@@H]1O[C@H](CO)[C@@H](O)[C@H](O)[C@H]1O [Progoitrin]
Bitter with sweet	O=C(O[C@@H]1Cc2c(O)cc(O)cc2O[C@@H]1c1cc(O)c(O)c(O)c1)c1cc(O)c(O)c(O)c1 [Epigallocatechin gallate]
Bitter	C=CC1CNC(=S)O1 (stereo not shown) [Goitrin, Goitrin 5-vinyl-2-oxazolidine thione]

SMILES	Taste quality
C=CCC(=NOS(=O)(=O)O)S[C@@H]1O[C@H](CO)[C@@H](O)[C@H](O)[C@H]1O (stereo in doubt) [Sinigrin]	Bitter
CC(=O)O[C@H]1CC(=O)OC(C)(C)[C@@H]2CC(=O)[C@]3(C)[C@H](CC[C@@]4(C)[C@H](c5ccoc5)OC(=O)[C@H]5O[C@]543)[C@@]12C [Nomilin]	Bitter
Oc1cc(O)c2c(c1)O[C@H](c1cc(O)c(O)c(O)c1)[C@H](O)C2 [Epigallocatechin]	Bitter with sweet
C[S+]([O-])CCCN=C=S (stereo not shown) [3-Methyl-sulfinylpropyl isothiocyanate]	Acrid mustard oils
C=CCN=C=S [Allyl-isothiocyanate]	Acrid mustard oils;
O=c1c(-c2ccc(O)cc2)coc2cc(O[C@@H]3O[C@H](CO)[C@@H](O)[C@H](O)[C@H]3O)ccc12 [Daidzin]	Astringent
S=C=NCc1ccccc1 [Benzyl isothiocyanate]	Acrid mustard oils;

System: GLP-1
Conditions: humans, after administration

SMILES	post-prandial GLP-1 levels
OCCN1C[C@H](O)[C@@H](O)[C@H](O)[C@H]1CO [miglitol]	increase

System: gut hormones
Conditions: humans, after administration

SMILES	gut hormones in the circulation
C=C1C[C@@]23CC[C@H]4[C@@](C)(CCC[C@@]4(C)C(=O)O[C@@H]4O[C@H](CO)[C@@H](O)[C@H](O)[C@H]4O)[C@@H]2CC[C@]1(O[C@@H]1O[C@H](CO)[C@@H](O)[C@H](O[C@@H]2O[C@H](CO)[C@@H](O)[C@H](O)[C@H]2O)[C@H]1O[C@@H]1O[C@H](CO)[C@@H](O)[C@H](O)[C@H]1O)C3 [Rebaudioside A]	no alterations
